The source of these data is publication PMC6963822, “Phenolic Compounds from the Aerial Parts of Blepharis linariifolia Pers. and Their Free Radical Scavenging and Enzyme Inhibitory Activities” (Medicines, 2019).

Assay [1] can be described thus: DPPH free radical scavenging activity. The following applies: 20 min, room temperature, absorbance at 520 nm, triplicate. The method, then: The antioxidant potential was determined using the 1,1- diphenyl-2-picrylhydrazyl (DPPH) radical scavenging method with minor modifications. In a 96-well plate, 25 μL of compound solution of different concentrations were added, followed by the addition of 75 μL of 50% EtOH and 50 μL MES buffer (200 mM, pH = 6.0). Finally, 50 μL of freshly prepared DPPH solution in ethanol (800 μM) were added, and the assay plate was incubated for 20 min in the dark at room temperature. The antioxidant activity corresponding to scavenging of DPPH radicals was measured at 520 nm with UV spectrophotometer using the following formula: Radical scavenging activity (%) = 100 × (A − B)/A, where A is the control absorbance of DPPH radicals without samples and B is the absorbance after reacting with samples. Trolox was used as the positive control.
(§1) All the experiments were performed in triplicate. The data was analyzed using Microsoft Office Excel (2007) and results for DPPH free radical and in vitro enzyme inhibitory activities were expressed as IC50 value (μM).
For orientation: DPPH is a stable violet radical that fades when it is reduced.

Assay [2] concerns the target T1, porcine pancreatic lipase (Sus scrofa, UniProt P00591).
T1 construct: purchased Sigma Aldrich, Co. (Tokyo, Japan)
T1 sequence (P00591 1-450): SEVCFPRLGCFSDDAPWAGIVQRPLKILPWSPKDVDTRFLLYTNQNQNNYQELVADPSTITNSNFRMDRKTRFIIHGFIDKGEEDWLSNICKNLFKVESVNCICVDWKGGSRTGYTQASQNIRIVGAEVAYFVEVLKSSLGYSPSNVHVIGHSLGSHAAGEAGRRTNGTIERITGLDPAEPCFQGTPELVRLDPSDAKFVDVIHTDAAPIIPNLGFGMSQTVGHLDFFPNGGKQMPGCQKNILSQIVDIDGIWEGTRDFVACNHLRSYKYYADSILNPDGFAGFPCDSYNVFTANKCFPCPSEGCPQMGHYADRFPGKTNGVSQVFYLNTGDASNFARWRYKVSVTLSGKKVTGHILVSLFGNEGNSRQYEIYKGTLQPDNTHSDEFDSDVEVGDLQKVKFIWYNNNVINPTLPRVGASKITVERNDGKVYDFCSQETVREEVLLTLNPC
In words: Pancreatic lipase inhibitory activity. It is filed as biochemical. The conditions noted are these: substrate 4-methylumbelliferyl oleate, pH 7.4, triplicate; for IC50: read-out: Enzyme Inhibitory Activities Lipase IC50.
Text: (§2) 1,1-Diphenyl-2-picrylhydrazyl (DPPH) and the enzymes α-glucosidase (from Saccharomyces cerevisiae), porcine pancreatic lipase, and mushroom tyrosinase were purchased from Sigma Aldrich, Co. (Tokyo, Japan). […] Cetilistat was obtained from Combi-Blocks, San Diego, USA, and arbutin was purchased from Nacalai Tesque, Inc. (Kyoto, Japan). 2-Morpholinoethanesulfonic acid monohydrate (MES) was purchased from Dojindo Chemical Research (Kumamoto, Japan).
Evaluation of pancreatic lipase inhibitory activity was performed by measuring the release of 4-methylumbelliferone (4MUF) from the substrate 4-methylumbelliferyl oleate (4MUFO) as reported by Bitou et al. with slight modifications. Briefly, 50 μL of the test sample and 50 μL of pancreatic lipase (100 μg/mL in phosphate buffer of 0.2 M, pH 7.4) were mixed and incubated at room temperature for 10 min. Afterward, 100 μL of the substrate 4MUFO (0.5 mM) was added. After 10 min, the fluorescence from the release of 4MUF was measured using a microplate reader with excitation and emission wavelengths of 355 and 460 nm, respectively. Cetilistat was used as the positive control. The percentage of pancreatic lipase inhibitory activity was calculated using the following equation: Inhibition (%) = (1 − (As/Ac) × 100), where As and Ac are the absorbance of sample and control, respectively.
as §1

Assay [3] deals with α-glucosidase. In words: α-Glucosidase inhibitory activity. It counts as biochemical, Saccharomyces cerevisiae. The conditions noted are these: substrate p-nitrophenyl-α-D-glucopyranoside, 37 °C, pH 6.8, triplicate; for IC50: read-out: Enzyme Inhibitory Activities α-Glucosidase IC50.
Text: as §2
The α-glucosidase inhibitory activity was determined according to the method reported by Jabeen et al. with slight modifications. In 96-well plate, 60 μL of 0.2 M phosphate buffer (pH = 6.8), 10 μL of the test sample (final concentration range of 100 to 1.56 μg/mL), and 10 μL of α-glucosidase solution (prepared in phosphate buffer to obtain 1 U/mL) were added. The mixture was incubated at 37 °C for 5 min and 20 μL of 4 mM p-nitrophenyl-α-D-glucopyranoside substrate were added. After 12 min of incubation at 37 °C, the released p-nitrophenol was measured at 405 nm using a spectrophotometer. The percentage inhibition of α-glucosidase activity was calculated using the equation: Inhibition (%) = (1 − (Aa − Ab)/(Ac − Ad)) × 100, in which Aa is the absorbance with test sample and enzyme, Ab is the absorbance with test samples but without enzyme, Ac is the absorbance with enzyme but without test sample, and Ad is the absorbance without test samples and enzymes.
as §1

Assay [4] addresses mushroom tyrosinase. The experiment in a line: Tyrosinase inhibitory activity. It is filed as biochemical, Agaricus bisporus. The following applies: substrate L-tyrosine, 25 °C, pH 6.8, triplicate; read-out: Enzyme Inhibitory Activities Tyrosinase IC50. From the text:
Antioxidants are substances that scavenge free radicals and related reactive species. Free radicals amend vital body composition such as lipids and proteins, resulting in serious conditions such as inflammatory conditions, atherosclerosis, and cancerous diseases. Therefore, dietary antioxidants are undertaken for enhancing health conditions for people under precarious sanitary conditions or to prevent serious and chronic illnesses such as neurodegenerative diseases, diabetes, and hyperlipidemia. Diabetes mellitus (DM) is a metabolic disorder characterized by high blood glucose, which is likely to cause serious side effects such as retinopathy and cataracts. […] Obesity is another example of a metabolic disorder associated with several co-morbidities, with an increasing prevalence every year. Excessive lipid accumulation could be one of the causative factors for type II diabetes, as the accumulation of lipid in the pancreas causes dysfunction of insulin-producing pancreatic β-cells. […] Tyrosinase is a key enzyme in the process of melanin synthesis. It has been isolated and identified from different sources. Among them, mushroom tyrosinase, from Agaricus bisporus, is a major source and is widely used due to its high similarity and homology to human tyrosinase. Despite the important protective role of melanin against UV-sunlight radiation, excess accumulation of this pigment results in harmful skin disorders and severe cases may cause skin cancer. […] (Tokyo, Japan). […] obtained from Combi-Blocks, San Diego, USA, and arbutin was purchased from Nacalai Tesque, Inc. (Kyoto, Japan). 2-Morpholinoethanesulfonic acid monohydrate (MES) was purchased from Dojindo Chemical Research (Kumamoto, Japan). The tyrosinase inhibitory activity was evaluated using the method reported by […] et al., with slight modifications. […] The mixture was incubated at 25 °C for 10 min. Finally, 20 μL of the substrate L-tyrosine (2 mM) were added, and the absorbance was measured at 476 nm. […] Arbutin was used as the positive control. […] All the experiments were performed in triplicate. The data was analyzed using Microsoft Office Excel (2007) and results for DPPH free radical and in vitro enzyme inhibitory activities were expressed as IC50 value (μM).

The subject of assay [5] is α-glucosidase. Details: method as in PMID 27581205. The following applies: cited from earlier work.
The test system of assay [6] is mushroom tyrosinase. The following applies: cited from earlier work.

Usually IC50 stands for the point on the concentration scale where inhibition reaches its midpoint. With `O=C(/C=C/c1ccc(O)cc1)OC[C@H]1O[C@@H](Oc2cc(O)c3c(c2)OC(c2ccc(O)cc2)CC3=O)[C@H](O)[C@@H](O)[C@@H]1O` (some centres unmarked) [6″-O-p-Coumaroylprunin (4), 6″-O-p-coumaroylprunin], the IC50 in assay [1] is 186.2 ± 1.19 µM; in assay [2], 2.25 ± 0.17 µM; on α-glucosidase [3] it was 46.3 ± 2.92 µM; at mushroom tyrosinase [4], 136.1 ± 0.78 µM. Also, in assay [2], the “Enzyme Inhibitory Activities Lipase IC50” value is reported as “active”.
In the case of `O=c1cc(-c2ccc(O)cc2)oc2cc(O)cc(O)c12` [Apigenin (3), apigenin], the IC50 in assay [1] amounted to 386.3 ± 3.42 µM; in assay [2], 12.5 ± 2.04 µM; at α-glucosidase [3], 34.7 ± 1.78 µM; on mushroom tyrosinase [4] it was 23.1 ± 1.83 µM. Besides, the “mode of α-glucosidase inhibition” value in the assay on α-glucosidase [5] is on record as “reversibly inhibit α-glucosidase in a noncompetitive manner”. For the same molecule, the “Enzyme Inhibitory Activities Lipase IC50” value in assay [2] is reported as “active”.
For the molecule `OC[C@H]1O[C@@H](Oc2ccc(O)cc2)[C@H](O)[C@@H](O)[C@@H]1O` [Arbutin, arbutin, reference compound], on mushroom tyrosinase [4], the concentration for half-maximal inhibition (IC50) is 436 ± 3.71 µM.
Turning to `CCCCCCCCCCCCCCCCOc1nc2ccc(C)cc2c(=O)o1` [Cetilistat, reference compound], the IC50 in assay [2] came out at 18.4 ± 1.71 µM.
Molecule `Cc1c(C)c2c(c(C)c1O)CCC(C)(C(=O)O)O2` (centres unmarked) [Trolox, 6-Hydroxy-2,5,7,8-tetramethylchroman-2-carboxylic acid, reference compound] had an IC50 in assay [1] of 39.07 ± 0.31 µM.
As for `COc1cc(C(=O)O)ccc1O` [Vanillic acid (2), vanillic acid], in the assay with mushroom tyrosinase [6], the “inhibitory activity for mushroom tyrosinase” value is on record as “did not show any inhibitory activity” and the tyrosinase inhibitory activity result was “weak”. This molecule yielded a half-maximal inhibitory concentration (IC50) in assay [1] of 217 ± 3.01 µM. In addition, the “Enzyme Inhibitory Activities Lipase IC50” value in assay [2] is “inactive”. On α-glucosidase [3], the “Enzyme Inhibitory Activities α-Glucosidase IC50” value is “neither showed inhibitory activities”.
For `C[C@@H]1O[C@@H](O[C@@H]2[C@@H](O)[C@H](OCCc3ccc(O)c(O)c3)O[C@H](CO)[C@H]2OC(=O)/C=C/c2ccc(O)c(O)c2)[C@H](O)[C@H](O)[C@H]1O` [Verbascoside (1), verbascoside], the IC50 was found to be 22.03 ± 0.04 µM in assay [1] and 97.4 ± 2.48 µM at mushroom tyrosinase [4]. Moreover, the “Enzyme Inhibitory Activities Lipase IC50” value in assay [2] is “inactive”. On α-glucosidase [3], the “Enzyme Inhibitory Activities α-Glucosidase IC50” value was “neither showed inhibitory activities”.
